According to PubChem BioAssay (NCI):
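At the GI50, growth is halved. Definition used: TGI = concentration required for complete inhibition of growth.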

What was measured:
Experiment in all cases: NCI anticancer screen, dose series, 384-well format
786-0 renal = tested on: 786-0 renal
A498 renal = tested on: A498 renal
A549 NSCLC = tested on: A549 NSCLC
ACHN renal = tested on: ACHN renal
BT-549 breast = tested on: BT-549 breast
CAKI-1 renal = tested on: CAKI-1 renal
CCRF-CEM leukemia = tested on: CCRF-CEM leukemia
DU-145 prostate = tested on: DU-145 prostate
EKVX NSCLC = tested on: EKVX NSCLC
HCT-116 colon = tested on: HCT-116 colon
HCT-15 colon = tested on: HCT-15 colon
HL-60(TB) leukemia = tested on: HL-60(TB) leukemia
HOP-62 NSCLC = tested on: HOP-62 NSCLC
HOP-92 NSCLC = tested on: HOP-92 NSCLC
HS 578T breast = tested on: HS 578T breast
HT29 colon = tested on: HT29 colon
IGROV1 ovarian = tested on: IGROV1 ovarian
K-562 leukemia = tested on: K-562 leukemia
KM12 colon = tested on: KM12 colon
LOX IMVI melanoma = tested on: LOX IMVI melanoma
M14 melanoma = tested on: M14 melanoma
MALME-3M melanoma = tested on: MALME-3M melanoma
MCF7 breast = tested on: MCF7 breast
MDA-MB-231 breast = tested on: MDA-MB-231 breast
MDA-MB-435 melanoma = tested on: MDA-MB-435 melanoma
MDA-MB-468 breast = tested on: MDA-MB-468 breast
MOLT-4 leukemia = tested on: MOLT-4 leukemia
NCI-H226 lung = tested on: NCI-H226 lung
NCI-H23 lung = tested on: NCI-H23 lung
NCI-H322M lung = tested on: NCI-H322M lung
NCI-H522 lung = tested on: NCI-H522 lung
NCI/ADR-RES ovarian = tested on: NCI/ADR-RES ovarian
OVCAR-3 ovarian = tested on: OVCAR-3 ovarian
OVCAR-4 ovarian = tested on: OVCAR-4 ovarian
OVCAR-5 ovarian = tested on: OVCAR-5 ovarian
OVCAR-8 ovarian = tested on: OVCAR-8 ovarian
PC-3 prostate = tested on: PC-3 prostate
RPMI-8226 leukemia = tested on: RPMI-8226 leukemia
RXF 393 renal = tested on: RXF 393 renal
SF-268 CNS = tested on: SF-268 CNS
SF-295 CNS = tested on: SF-295 CNS
SF-539 CNS = tested on: SF-539 CNS
SK-MEL-2 melanoma = tested on: SK-MEL-2 melanoma
SK-MEL-28 melanoma = tested on: SK-MEL-28 melanoma
SK-OV-3 ovarian = tested on: SK-OV-3 ovarian
SN12C renal = tested on: SN12C renal
SNB-19 CNS = tested on: SNB-19 CNS
SNB-75 CNS = tested on: SNB-75 CNS
SW-620 colon = tested on: SW-620 colon
T-47D breast = tested on: T-47D breast
TK-10 renal = tested on: TK-10 renal
U251 glioblastoma = tested on: U251 glioblastoma
UACC-257 melanoma = tested on: UACC-257 melanoma
UACC-62 melanoma = tested on: UACC-62 melanoma
UO-31 renal = tested on: UO-31 renal

CC(=O)O[C@]1(C(C)=O)CC[C@H]2[C@@H]3C=C(C)C4=CC(=O)CC[C@]4(C)[C@H]3CC[C@@]21C gave a GI50 ([…]-0 renal) of over 100 µM, a TGI (786-0 renal) of over 100 µM and a GI50 (A498 renal) of over 100 µM. For the same molecule, the TGI (A498 renal) was over 100 µM, the GI50 (A549 NSCLC) was over 100 µM and the TGI (A549 NSCLC) was over 100 µM. The GI50 (ACHN renal) was over 100 µM, the TGI (ACHN renal) was over 100 µM and the GI50 (BT-549 breast) was over 100 µM. It also gave a TGI (BT-549 breast) of over 100 µM, a GI50 (CAKI-1 renal) of over 100 µM and a TGI (CAKI-1 renal) of over 100 µM. It also gave a GI50 (CCRF-CEM leukemia) of 18.6 µM, a TGI (CCRF-CEM leukemia) of 32.9 µM and a GI50 (DU-145 prostate) of over 100 µM. It also gave a TGI (DU-145 prostate) of over 100 µM, a GI50 (EKVX NSCLC) of over 100 µM and a TGI (EKVX NSCLC) of over 100 µM. It also gave a GI50 (HCT-116 colon) of 70.7 µM, a TGI (HCT-116 colon) of over 100 µM and a GI50 (HCT-15 colon) of over 100 µM. The TGI (HCT-15 colon) was over 100 µM, the GI50 (HL-60(TB) leukemia) was 10.5 µM and the TGI (HL-60(TB) leukemia) was 22.5 µM. It also gave a GI50 (HOP-62 NSCLC) of over 100 µM, a TGI (HOP-62 NSCLC) of over 100 µM and a GI50 (HOP-92 NSCLC) of over 100 µM. The TGI (HOP-92 NSCLC) was over 100 µM, the GI50 (HS 578T breast) was over 100 µM and the TGI (HS 578T breast) was over 100 µM. It also gave a GI50 (HT29 colon) of over 100 µM, a TGI (HT29 colon) of over 100 µM and a GI50 (IGROV1 ovarian) of over 100 µM. For the same molecule, the TGI (IGROV1 ovarian) was over 100 µM, the GI50 (K-562 leukemia) was 20.5 µM and the TGI (K-562 leukemia) was 41.7 µM. The GI50 (KM12 colon) was over 100 µM, the TGI (KM12 colon) was over 100 µM and the GI50 (LOX IMVI melanoma) was over 100 µM. For the same molecule, the TGI (LOX IMVI melanoma) was over 100 µM, the GI50 (M14 melanoma) was 76.3 µM and the TGI (M14 melanoma) was over 100 µM. It also gave a GI50 (MALME-3M melanoma) of over 100 µM, a TGI (MALME-3M melanoma) of over 100 µM and a GI50 (MCF7 breast) of over 100 µM. For the same molecule, the TGI (MCF7 breast) was over 100 µM, the GI50 (MDA-MB-231 breast) was over 100 µM and the TGI (MDA-MB-231 breast) was over 100 µM. The GI50 (MDA-MB-435 melanoma) was over 100 µM, the TGI (MDA-MB-435 melanoma) was over 100 µM and the GI50 (MDA-MB-468 breast) was 44.1 µM. For the same molecule, the TGI (MDA-MB-468 breast) was over 100 µM, the GI50 (MOLT-4 leukemia) was 14.1 µM and the TGI (MOLT-4 leukemia) was 29.3 µM. It also gave a GI50 (NCI-H226 lung) of over 100 µM, a TGI (NCI-H226 lung) of over 100 µM and a GI50 (NCI-H23 lung) of over 100 µM. The TGI (NCI-H23 lung) was over 100 µM, the GI50 (NCI-H322M lung) was over 100 µM and the TGI (NCI-H322M lung) was over 100 µM. The GI50 (NCI-H522 lung) was over 100 µM, the TGI (NCI-H522 lung) was over 100 µM and the GI50 (NCI/ADR-RES ovarian) was over 100 µM. It also gave a TGI (NCI/ADR-RES ovarian) of over 100 µM, a GI50 (OVCAR-3 ovarian) of over 100 µM and a TGI (OVCAR-3 ovarian) of over 100 µM. For the same molecule, the GI50 (OVCAR-4 ovarian) was over 100 µM, the TGI (OVCAR-4 ovarian) was over 100 µM and the GI50 (OVCAR-5 ovarian) was over 100 µM. The TGI (OVCAR-5 ovarian) was over 100 µM, the GI50 (OVCAR-8 ovarian) was over 100 µM and the TGI (OVCAR-8 ovarian) was over 100 µM. The GI50 (PC-3 prostate) was 74.7 µM, the TGI (PC-3 prostate) was over 100 µM and the GI50 (RPMI-8226 leukemia) was 11.5 µM. The TGI (RPMI-8226 leukemia) was 28.1 µM, the GI50 (RXF 393 renal) was over 100 µM and the TGI (RXF 393 renal) was over 100 µM. It also gave a GI50 (SF-268 CNS) of over 100 µM, a TGI (SF-268 CNS) of over 100 µM and a GI50 (SF-295 CNS) of over 100 µM. The TGI (SF-295 CNS) was over 100 µM, the GI50 (SF-539 CNS) was over 100 µM and the TGI (SF-539 CNS) was over 100 µM. The GI50 (SK-MEL-2 melanoma) was over 100 µM, the TGI (SK-MEL-2 melanoma) was over 100 µM and the GI50 (SK-MEL-28 melanoma) was over 100 µM. The TGI (SK-MEL-28 melanoma) was over 100 µM, the GI50 (SK-OV-3 ovarian) was over 100 µM and the TGI (SK-OV-3 ovarian) was over 100 µM. For the same molecule, the GI50 (SN12C renal) was over 100 µM, the TGI (SN12C renal) was over 100 µM and the GI50 (SNB-19 CNS) was over 100 µM. For the same molecule, the TGI (SNB-19 CNS) was over 100 µM, the GI50 (SNB-75 CNS) was over 100 µM and the TGI (SNB-75 CNS) was over 100 µM. It also gave a GI50 (SW-620 colon) of over 100 µM, a TGI (SW-620 colon) of over 100 µM and a GI50 (T-47D breast) of over 100 µM. The TGI (T-47D breast) was over 100 µM, the GI50 (TK-10 renal) was over 100 µM and the TGI (TK-10 renal) was over 100 µM. It also gave a GI50 (U251 glioblastoma) of over 100 µM, a TGI (U251 glioblastoma) of over 100 µM and a GI50 (UACC-257 melanoma) of over 100 µM. It also gave a TGI (UACC-257 melanoma) of over 100 µM, a GI50 (UACC-62 melanoma) of over 100 µM and a TGI (UACC-62 melanoma) of over 100 µM. For the same molecule, the GI50 (UO-31 renal) was over 100 µM and the TGI (UO-31 renal) was over 100 µM.
